In patent US20250276989A1, “GPR40 AGONISTS” (Kallyope, Inc., priority 2020, published 2025):

What was measured:
human GPR40 = molecular target: T1, human GPR40 (Homo sapiens, UniProt O14842); test: Inositol phosphate accumulation assay (IP1 HTRF) in CHO-K1 cells expressing human GPR40; format: cell-based; details: 90 min stimulation
T1 construct: host or cells: CHO-K1
Protocol: CHO-K1 cells expressing human GPR40 were purchased from DiscoverX (95-1005C2). HEK293 cells expressing mouse FFAR1 were prepared using a mouse FFAR1 carrying plasmid purchased from OriGene Technologies (MR222997). The cells were transfected using Lipofectamine 2000 using manufacturer instructions and stable cell line was established from a single cell using geneticine selection. Assay ready frozen (ARF) cells were prepared and used throughout the study.
The assay was performed in a 384-well plate format using IP1 assay kit from Cis-Bio. ARF cells expressing FFAR1 (mouse and human) were thawed, washed and then plated in the appropriate medium (F12 based medium for CHO hFFAR1 and DMEM based medium for HEK293 mFFAR1—both were supplemented with 10% FBS and penicillin/streptomycin). 20 μL of 3.5×10^5 cells/mL were plated on a Poly D-Lysine coated 384-well white plate. The cells were then incubated for 16 hr at 37° C./5% CO2. After 16 hr the medium was removed and 15 μL of stimulation buffer containing the test compounds was added to the cells. The plates were then incubated for 90 min at 37° C./5% CO2. 5 μL of detection buffer (prepared as described in the IP-one kit) was added to each well and the plates were incubated at RT for 1 hr.
[…] was measured using ClarioSTAR plate reader, calculating the ratio between emissions at 665 nm and 620 nm (HTRF ratio). HTRF ratio for positive (Max) and negative (Min) controls were used to normalize HTRF data and generate values for % activity. EC50 and Max activity values were determined using a standard 4-parameter fit.

[1] = In vivo plasma levels in mice; details: male C57BL/6J mice, 30 mg/kg oral gavage; for Exposure (nM) (unbound), unbound exposure in plasma: total exposure x free fraction from plasma protein binding
Protocol: Male C57BL/6J mice 10-12 weeks old were dosed with test article (30 mg/kg) or vehicle by oral gavage. Animals were euthanized with carbon dioxide at 2 h or 5 h post dose. Blood was collected for measurement of plasma concentrations of test article. Unbound exposure was calculated by multiplying the measured total exposure by the free fraction as assessed from plasma protein binding.
Plasma protein binding to isotonic phosphate buffer (PBS) containing 10% C57 BL/6 mouse plasma was determined using equilibrium dialysis of plasma spiked with test article (2 μM) against a dialysis buffer (100 mM sodium phosphate and 150 mM NaCl). At the end of the dialysis (4 hr), aliquots of the plasma and buffer were processed by protein precipitation for LC-MS/MS analysis to quantitate the test article.
Results for exemplary compounds (total exposure in plasma and unbound exposure in plasma; ratio of EC50 to unbound exposure in plasma) are shown in Table 2.

T1 sequence (O14842 whole entry): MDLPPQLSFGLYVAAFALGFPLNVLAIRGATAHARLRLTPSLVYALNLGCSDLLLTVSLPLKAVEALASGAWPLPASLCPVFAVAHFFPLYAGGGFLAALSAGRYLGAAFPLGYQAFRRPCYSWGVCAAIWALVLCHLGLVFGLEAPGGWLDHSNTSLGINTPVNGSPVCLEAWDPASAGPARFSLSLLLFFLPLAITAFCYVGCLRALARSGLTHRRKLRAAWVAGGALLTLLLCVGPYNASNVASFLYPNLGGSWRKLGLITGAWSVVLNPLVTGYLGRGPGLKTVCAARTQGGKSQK

EC50 (human GPR40) [nM]	Compound	other results
≤ 50	COc1ccc(F)c([C@H]2CC[C@H](COc3cccc(C(CP(C)(=O)O)C4CC4)c3)CC2)c1 (single isomer, unassigned) [Compound 5, (2-cyclopropyl-2-(3-(((trans)-4-(2-fluoro-5-methoxyphenyl)cyclohexyl)methoxy)phenyl)ethyl)(methyl)phosphinic acid]	Exposure (nM) (unbound), unbound exposure in plasma ([1]; 2 h post-dose): 2.5 nM; concentration at 2 h ([1]; mouse, plasma, 2 h post-dose, read-out: Exposure (nM), total exposure in plasma): 8300 nM
50 to 250	COc1ccc(F)c([C@H]2CC[C@H](COc3cccc(C(CP(C)(=O)O)C4CC4)c3)CC2)c1 (single isomer, unassigned) [Compound 6, (2-cyclopropyl-2-(3-(((trans)-4-(2-fluoro-5-methoxyphenyl)cyclohexyl)methoxy)phenyl)ethyl)(methyl)phosphinic acid]	–
≤ 50	COc1ccc(F)c([C@H]2CC[C@H](COc3cccc(C(CP(C)(=O)O)C4CC4)c3)CC2)c1 (single isomer, unassigned) [Compound 7, (2-cyclopropyl-2-(3-(((trans)-4-(2-fluoro-5-methoxyphenyl)cyclohexyl)methoxy)phenyl)ethyl)(methyl)phosphinic acid]	–
50 to 250	COc1ccc(F)c([C@H]2CC[C@H](COc3cccc(C(CP(C)(=O)O)C4CC4)c3)CC2)c1 (single isomer, unassigned) [Compound 8, (2-cyclopropyl-2-(3-(((trans)-4-(2-fluoro-5-methoxyphenyl)cyclohexyl)methoxy)phenyl)ethyl)(methyl)phosphinic acid]	–
> 1000	COc1ccc(F)c([C@H]2CC[C@H](COc3cccc(C(CP(=O)(O)O)C4CC4)c3)CC2)c1 (stereo partly drawn) [Compound 2, (2-cyclopropyl-2-(3-(((trans)-4-(2-fluoro-5-methoxyphenyl)cyclohexyl)methoxy)phenyl)ethyl)phosphonic acid]	–
> 1000	COc1ccc(F)c([C@H]2CC[C@H](COc3cccc(C(CS(=O)(=O)O)C4CC4)c3)CC2)c1 (stereo partly drawn) [Compound 3, 2-cyclopropyl-2-(3-(((trans)-4-(2-fluoro-5-methoxyphenyl)cyclohexyl)methoxy)phenyl)ethanesulfonic acid]	–
> 1000	COc1ccc(F)c([C@H]2CC[C@H](COc3cccc(C(C4CC4)C(C)P(=O)(O)O)c3)CC2)c1 (stereo partly drawn) [Compound 4, (1-cyclopropyl-1-(3-(((trans)-4-(2-fluoro-5-methoxyphenyl)cyclohexyl)methoxy)phenyl)propan-2-yl)phosphonic acid]	–
≤ 50	COc1ccc(F)c([C@H]2CC[C@H](COc3cc([C@@H](CP(C)(=O)O)C4CC4)ccn3)CC2)c1 [Compound 9, ((S)-2-cyclopropyl-2-(2-(((trans)-4-(2-fluoro-5-methoxyphenyl)cyclohexyl)methoxy)pyridin-4-yl)ethyl)(methyl)phosphinic acid]	Exposure (nM) (unbound), unbound exposure in plasma ([1]; 5 h post-dose): 2.3 nM; concentration at 5 h ([1]; mouse, plasma, 5 h post-dose, read-out: Exposure (nM), total exposure in plasma): 1160 nM
≤ 50	COc1ccc(CCCC(C)(C)C)c(N2CCC(COc3cccc([C@@H](CP(C)(=O)O)C4CC4)c3)CC2)c1 [Compound 10, ((S)-2-cyclopropyl-2-(3-((1-(2-(4,4-dimethylpentyl)-5-methoxyphenyl)piperidin-4-yl)methoxy)phenyl)ethyl)(methyl)phosphinic acid]	–
≤ 50	COc1ccc(CCCC(C)(C)C)c(N2CCC(COc3cc([C@@H](CP(C)(=O)O)C4CC4)ccn3)CC2)c1 [Compound 11, ((S)-2-cyclopropyl-2-(2-((1-(2-(4,4-dimethylpentyl)-5-methoxyphenyl)piperidin-4-yl)methoxy)pyridin-4-yl)ethyl)(methyl)phosphinic acid]	–
≤ 50	COc1ccc(CCCC(C)(C)C)c(N2CCC(COc3cc([C@@H](C)CP(C)(=O)O)ccn3)CC2)c1 [Compound 12, ((R)-2-(2-((1-(2-(4,4-dimethylpentyl)-5-methoxyphenyl)piperidin-4-yl)methoxy)pyridin-4-yl)propyl)(methyl)phosphinic acid]	–
250 to 1000	COc1ccc(CCCC(C)(C)C)c(N2CCC(COc3cc([C@H](C)CP(C)(=O)O)ccn3)CC2)c1 [Compound 13, ((S)-2-(2-((1-(2-(4,4-dimethylpentyl)-5-methoxyphenyl)piperidin-4-yl)methoxy)pyridin-4-yl)propyl)(methyl)phosphinic acid]	–
50 to 250	COc1ccc(CCCC(C)(C)C)c(N2CCC(COc3cccc([C@@H](C)CP(C)(=O)O)c3)CC2)c1 [Compound 14, ((R)-2-(3-((1-(2-(4,4-dimethylpentyl)-5-methoxyphenyl)piperidin-4-yl)methoxy)phenyl)propyl)(methyl)phosphinic acid]	–
≤ 50	COc1ccc(CCCC(C)(C)C)c(N2CCC(COc3cccc([C@H](C)CP(C)(=O)O)c3)CC2)c1 [Compound 15, ((S)-2-(3-((1-(2-(4,4-dimethylpentyl)-5-methoxyphenyl)piperidin-4-yl)methoxy)phenyl)propyl)(methyl)phosphinic acid]	–
> 1000	COc1ccc(CCCC(C)(C)C)c(N2CCC(COc3cccc(CC(C)P(=O)(O)O)c3)CC2)c1 (stereo not drawn) [Compound 16, (1-(3-((1-(2-(4,4-dimethylpentyl)-5-methoxyphenyl)piperidin-4-yl)methoxy)phenyl)propan-2-yl)phosphonic acid]	–
250 to 1000	CC[C@H](Cc1cccc(OCC2CCN(c3cc(OC)ccc3CCCC(C)(C)C)CC2)c1)P(C)(=O)O [Compound 17, ((R)-1-(3-((1-(2-(4,4-dimethylpentyl)-5-methoxyphenyl)piperidin-4-yl)methoxy)phenyl)butan-2-yl)(methyl)phosphinic acid]	–
250 to 1000	CC[C@@H](Cc1cccc(OCC2CCN(c3cc(OC)ccc3CCCC(C)(C)C)CC2)c1)P(C)(=O)O [Compound 18, ((S)-1-(3-((1-(2-(4,4-dimethylpentyl)-5-methoxyphenyl)piperidin-4-yl)methoxy)phenyl)butan-2-yl)(methyl)phosphinic acid]	–
250 to 1000	COc1ccc(CCCC(C)(C)C)c(N2CCC(COc3cccc([C@H](C)CP(=O)(O)O)c3)CC2)c1 [Compound 19, (S)-(2-(3-((1-(2-(4,4-dimethylpentyl)-5-methoxyphenyl)piperidin-4-yl)methoxy)phenyl)propyl)phosphonic acid]	–
> 1000	COc1ccc(CCCC(C)(C)C)c(N2CCC(COc3cccc([C@@H](C)CP(=O)(O)O)c3)CC2)c1 [Compound 20, (R)-(2-(3-((1-(2-(4,4-dimethylpentyl)-5-methoxyphenyl)piperidin-4-yl)methoxy)phenyl)propyl)phosphonic acid]	–

Compound	EC50 (human GPR40) [nM]	other results
COc1ccc(F)c([C@H]2CC[C@H](COc3cccc(C(CP(=O)(O)OC)C4CC4)c3)CC2)c1 (stereo partly drawn) [Compound 1, methyl hydrogen (2-cyclopropyl-2-(3-(((trans)-4-(2-fluoro-5-methoxyphenyl)cyclohexyl)methoxy)phenyl)ethyl)phosphonate]	250 to 1000	–
